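Grown in 96-well plates, cells were treated for 48 hours with each compound at five concentrations. Insufficient inhibition: endpoint recorded as highest concentration tested. Here, GI50 denotes the concentration required for 50% inhibition of growth.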 Activity calls are given as the source filed them. Rule as the data show it: active = GI50 up to about 1.1 µM and inactive = higher.
Tests used:
Experiment in all cases: NCI-60 cell line screen, 48 h
[1] = test system: 786-0
[2] = test system: ACHN
[3] = test system: COLO 205
[4] = test system: HCT-116
[5] = test system: HT-29
[6] = test system: MDA-N
[7] = test system: MOLT-4
[8] = test system: NCI-H460
[9] = test system: OVCAR-3
[10] = test system: OVCAR-5
[11] = test system: PC-3
[12] = test system: RPMI-8226
[13] = test system: SF-539
[14] = test system: SK-MEL-2
[15] = test system: SK-OV-3
[16] = test system: SN12C
[17] = test system: T47D
[18] = test system: UACC-257
[19] = test system: UACC-62
[20] = test system: HOP-92

Structure (SMILES)	GI50 [1]	GI50 [2]	GI50 [3]	GI50 [4]	GI50 [5]	GI50 [6]	GI50 [7]	GI50 [8]	GI50 [9]	GI50 [10]	GI50 [11]	GI50 [12]	GI50 [13]	GI50 [14]	GI50 [15]	GI50 [16]	GI50 [17]	GI50 [18]	GI50 [19]	GI50 [20]
O=C(Nc1ccccc1C(=O)Nc1nccs1)c1ccccc1	16.4 µM (inactive)	14.3 µM (inactive)	4.04 µM (inactive)	12.1 µM (inactive)	4.44 µM (inactive)	19.5 µM (inactive)	3.44 µM (inactive)	3.81 µM (inactive)	3.98 µM (inactive)	> 100 µM (inactive)	2.45 µM (inactive)	6.65 µM (inactive)	43 µM (inactive)	5.22 µM (inactive)	23.2 µM (inactive)	59 µM (inactive)	2.84 µM (inactive)	31 µM (inactive)	25.2 µM (inactive)	–
O=c1[nH]/c(=C/c2ccc(OCc3ccccc3)cn2)c(=O)[nH]/c1=C/c1ccc(Cl)cc1	1.83 µM (inactive)	4.24 µM (inactive)	11.9 µM (inactive)	–	2.8 µM (inactive)	0.215 µM (active)	1.52 µM (inactive)	1.79 µM (inactive)	0.653 µM (active)	> 100 µM (inactive)	–	3.81 µM (inactive)	3.08 µM (inactive)	4.73 µM (inactive)	4.47 µM (inactive)	48.3 µM (inactive)	> 100 µM (inactive)	1 µM (active)	1.94 µM (inactive)	13.9 µM (inactive)
O=C(O)c1ccc(Nc2nc3ccc(C(F)(F)F)cc3nc2-c2ccccc2)cc1	37.7 µM (inactive)	32.9 µM (inactive)	–	29.6 µM (inactive)	> 10 µM (inactive)	47.6 µM (inactive)	30 µM (inactive)	29.6 µM (inactive)	17.9 µM (inactive)	78 µM (inactive)	50.9 µM (inactive)	30.1 µM (inactive)	27 µM (inactive)	–	–	77.6 µM (inactive)	15.6 µM (inactive)	70 µM (inactive)	14.6 µM (inactive)	–
CC(=O)[C@@H]1[C@@H](OC(=O)CCC(C)COC2OC(CO)C(O)C(O)C2O)C[C@H]2[C@@H]3CC=C4C[C@@H](OC5OC(CO)C(OC6OC(C)C(O)C(O)C6O)C(O)C5OC5OC(C)C(O)C(O)C5O)CC[C@]4(C)[C@H]3CC[C@]12C (some centres not stated)	> 100 µM (inactive)	> 100 µM (inactive)	> 100 µM (inactive)	> 100 µM (inactive)	–	> 100 µM (inactive)	> 100 µM (inactive)	> 100 µM (inactive)	> 100 µM (inactive)	> 100 µM (inactive)	> 100 µM (inactive)	> 100 µM (inactive)	–	> 100 µM (inactive)	> 100 µM (inactive)	> 100 µM (inactive)	> 100 µM (inactive)	> 100 µM (inactive)	> 100 µM (inactive)	–
CCOC(=O)C(=Cc1[nH]c2ccccc2c1-c1c[nH]c2ccccc12)C(=O)OCC	2.75 µM (inactive)	12.2 µM (inactive)	16.2 µM (inactive)	10.8 µM (inactive)	5 µM (inactive)	13.3 µM (inactive)	0.923 µM (active)	12.6 µM (inactive)	9.33 µM (inactive)	15.1 µM (inactive)	10.3 µM (inactive)	2.84 µM (inactive)	18.5 µM (inactive)	11.7 µM (inactive)	20.3 µM (inactive)	15 µM (inactive)	–	10.4 µM (inactive)	4.88 µM (inactive)	11 µM (inactive)
O=[N+]([O-])c1cc(Cl)ccc1S(=O)(=O)c1cc(Cl)cc2c1NCCC2	> 100 µM (inactive)	40.9 µM (inactive)	99.8 µM (inactive)	63.1 µM (inactive)	45.6 µM (inactive)	39.3 µM (inactive)	27.6 µM (inactive)	55.1 µM (inactive)	62.7 µM (inactive)	> 100 µM (inactive)	69.8 µM (inactive)	> 100 µM (inactive)	> 100 µM (inactive)	> 100 µM (inactive)	> 100 µM (inactive)	> 100 µM (inactive)	–	22.4 µM (inactive)	29.5 µM (inactive)	54.6 µM (inactive)
COc1cccc(C2c3cc4c(cc3OC(NNc3ccccc3)C2C)OCO4)c1OC (configuration not stated)	19.4 µM (inactive)	1.65 µM (inactive)	3.77 µM (inactive)	3.78 µM (inactive)	12 µM (inactive)	5.46 µM (inactive)	2.55 µM (inactive)	3.26 µM (inactive)	4.4 µM (inactive)	6.62 µM (inactive)	1.76 µM (inactive)	2.92 µM (inactive)	4.14 µM (inactive)	10.1 µM (inactive)	49.1 µM (inactive)	9.84 µM (inactive)	5.09 µM (inactive)	5.06 µM (inactive)	2.78 µM (inactive)	–
Cc1ccc([N+](=O)[O-])cc1NC(=O)C(=O)C1CCC2=C(Sc3ccccc3N2)C1=O (configuration not stated)	> 100 µM (inactive)	> 100 µM (inactive)	> 100 µM (inactive)	68.2 µM (inactive)	> 100 µM (inactive)	> 100 µM (inactive)	43.7 µM (inactive)	> 100 µM (inactive)	23 µM (inactive)	> 100 µM (inactive)	53 µM (inactive)	–	37.5 µM (inactive)	> 100 µM (inactive)	> 100 µM (inactive)	> 100 µM (inactive)	–	> 100 µM (inactive)	> 100 µM (inactive)	> 100 µM (inactive)
COP1(=O)OCc2cnccc2O1 (configuration not stated)	> 100 µM (inactive)	> 100 µM (inactive)	> 100 µM (inactive)	> 100 µM (inactive)	> 100 µM (inactive)	> 100 µM (inactive)	> 100 µM (inactive)	> 100 µM (inactive)	> 100 µM (inactive)	> 100 µM (inactive)	> 100 µM (inactive)	> 100 µM (inactive)	> 100 µM (inactive)	> 100 µM (inactive)	> 100 µM (inactive)	> 100 µM (inactive)	> 100 µM (inactive)	> 100 µM (inactive)	> 100 µM (inactive)	–
CC(=O)O[C@@H]1O[Si](C(C)(C)C)(C(C)(C)C)[C@H](C)[C@H]1C	33.5 µM (inactive)	> 100 µM (inactive)	> 100 µM (inactive)	29.9 µM (inactive)	18.6 µM (inactive)	> 100 µM (inactive)	20.8 µM (inactive)	–	24 µM (inactive)	> 100 µM (inactive)	33 µM (inactive)	45.1 µM (inactive)	> 100 µM (inactive)	> 100 µM (inactive)	> 100 µM (inactive)	> 100 µM (inactive)	> 100 µM (inactive)	> 100 µM (inactive)	83.6 µM (inactive)	–
COc1cccc(N2CCc3c(C)c(C#N)c4nc5ccccc5n4c32)c1	58.3 µM (inactive)	> 100 µM (inactive)	> 100 µM (inactive)	> 100 µM (inactive)	> 100 µM (inactive)	> 100 µM (inactive)	–	> 100 µM (inactive)	> 100 µM (inactive)	> 100 µM (inactive)	> 100 µM (inactive)	–	45.7 µM (inactive)	94.8 µM (inactive)	48.1 µM (inactive)	> 100 µM (inactive)	–	> 100 µM (inactive)	> 100 µM (inactive)	22.1 µM (inactive)
Cn1c(=O)n2n(c1=O)C(S(=O)(=O)c1ccccc1)C2 (configuration not stated)	> 100 µM (inactive)	> 100 µM (inactive)	> 100 µM (inactive)	> 100 µM (inactive)	> 100 µM (inactive)	> 100 µM (inactive)	> 100 µM (inactive)	> 100 µM (inactive)	> 100 µM (inactive)	> 100 µM (inactive)	> 100 µM (inactive)	> 100 µM (inactive)	> 100 µM (inactive)	> 100 µM (inactive)	> 100 µM (inactive)	> 100 µM (inactive)	–	> 100 µM (inactive)	> 100 µM (inactive)	> 100 µM (inactive)
N#Cc1sc2c(c1OC(=O)c1ccccc1)c(=O)n(-c1ccccc1)c(=S)n2-c1ccccc1	30.3 µM (inactive)	–	16.6 µM (inactive)	19.9 µM (inactive)	32.7 µM (inactive)	26.3 µM (inactive)	20.6 µM (inactive)	30.3 µM (inactive)	28.1 µM (inactive)	–	19.5 µM (inactive)	23.6 µM (inactive)	23.8 µM (inactive)	28.6 µM (inactive)	35.6 µM (inactive)	26.4 µM (inactive)	16.2 µM (inactive)	35.7 µM (inactive)	19.9 µM (inactive)	–
COc1ccc(/C=C2\CCC(C)C3=C2N=c2s/c(=C/c4cccc(Br)c4)c(=O)n2C3c2ccc(OC)c(OC)c2)cc1OC (configuration not stated)	> 100 µM (inactive)	> 100 µM (inactive)	–	> 100 µM (inactive)	> 100 µM (inactive)	> 100 µM (inactive)	> 100 µM (inactive)	–	–	> 100 µM (inactive)	> 100 µM (inactive)	> 100 µM (inactive)	–	> 100 µM (inactive)	> 100 µM (inactive)	> 100 µM (inactive)	–	> 100 µM (inactive)	> 100 µM (inactive)	> 100 µM (inactive)
CCC(C)N1CN(c2ccccc2)C2(CCN(CCCSc3ccc(F)cc3)CC2)C1=O (configuration not stated)	2.89 µM (inactive)	3.15 µM (inactive)	1.72 µM (inactive)	2.88 µM (inactive)	2.15 µM (inactive)	2.9 µM (inactive)	3 µM (inactive)	–	2.33 µM (inactive)	2.1 µM (inactive)	6.35 µM (inactive)	2.31 µM (inactive)	2.57 µM (inactive)	–	4.92 µM (inactive)	3.78 µM (inactive)	2.99 µM (inactive)	2.74 µM (inactive)	5.47 µM (inactive)	–
